Test results taken from patent publication US11857519B2, “Compounds and methods for the targeted degradation of enhancer of zeste homolog 2 polypeptide” (Arvinas Operations, Inc., priority 2016, dated 2024).

Target: T1, EZH2 (Homo sapiens, UniProt Q15910)
T1 construct: Protocol of the Cellular Assay of Target Protein Degradation (VCaP Cells, ELISA); endogenous in cells; host or cells: VCaP cells
Test: Cellular assay of target protein degradation (VCaP cells, ELISA)
Format: cell-based
Details: 4 hours, protein degradation range at indicated concentration (relative to DMSO control)
Outline: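 VCaP cells grown ≥3 days in RPMI with 5% CSS, then dosed with compounds in 0.1% DMSO for 4 h. Lysates analysed by sandwich ELISA for EZH2 with TMB readout at 450 nm, 562 nm used for background subtraction.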

T1 sequence (Q15910 whole entry): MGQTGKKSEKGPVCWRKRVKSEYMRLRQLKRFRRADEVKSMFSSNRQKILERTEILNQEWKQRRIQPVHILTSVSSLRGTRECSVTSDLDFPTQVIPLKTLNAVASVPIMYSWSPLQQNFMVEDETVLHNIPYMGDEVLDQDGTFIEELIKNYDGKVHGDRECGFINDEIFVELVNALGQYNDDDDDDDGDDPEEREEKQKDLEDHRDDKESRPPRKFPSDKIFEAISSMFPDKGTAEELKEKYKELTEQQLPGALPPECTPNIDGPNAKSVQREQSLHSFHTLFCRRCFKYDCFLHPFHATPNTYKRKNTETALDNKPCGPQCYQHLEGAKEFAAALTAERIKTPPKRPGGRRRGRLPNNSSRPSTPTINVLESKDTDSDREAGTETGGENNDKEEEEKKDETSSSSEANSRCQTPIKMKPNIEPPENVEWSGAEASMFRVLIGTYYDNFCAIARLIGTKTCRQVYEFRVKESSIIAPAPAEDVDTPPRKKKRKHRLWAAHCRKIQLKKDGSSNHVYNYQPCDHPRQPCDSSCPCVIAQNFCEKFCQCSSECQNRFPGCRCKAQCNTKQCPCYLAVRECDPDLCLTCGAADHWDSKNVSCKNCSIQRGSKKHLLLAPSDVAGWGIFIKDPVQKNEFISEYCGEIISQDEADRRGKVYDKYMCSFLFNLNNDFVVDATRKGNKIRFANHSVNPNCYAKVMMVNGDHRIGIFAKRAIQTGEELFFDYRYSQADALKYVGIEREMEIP
T1 sequence (O75530 whole entry partner): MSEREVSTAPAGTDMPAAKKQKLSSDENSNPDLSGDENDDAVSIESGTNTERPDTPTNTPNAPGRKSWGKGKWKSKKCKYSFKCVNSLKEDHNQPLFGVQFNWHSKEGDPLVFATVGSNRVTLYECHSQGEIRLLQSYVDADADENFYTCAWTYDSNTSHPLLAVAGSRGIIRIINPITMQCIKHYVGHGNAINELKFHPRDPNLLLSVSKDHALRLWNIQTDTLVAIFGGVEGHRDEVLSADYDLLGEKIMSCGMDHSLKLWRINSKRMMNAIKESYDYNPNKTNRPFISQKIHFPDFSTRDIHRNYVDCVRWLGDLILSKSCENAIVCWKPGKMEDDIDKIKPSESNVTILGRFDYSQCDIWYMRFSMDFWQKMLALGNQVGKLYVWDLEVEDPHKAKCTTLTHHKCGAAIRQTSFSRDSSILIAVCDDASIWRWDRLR
T1 sequence (Q15022 whole entry partner): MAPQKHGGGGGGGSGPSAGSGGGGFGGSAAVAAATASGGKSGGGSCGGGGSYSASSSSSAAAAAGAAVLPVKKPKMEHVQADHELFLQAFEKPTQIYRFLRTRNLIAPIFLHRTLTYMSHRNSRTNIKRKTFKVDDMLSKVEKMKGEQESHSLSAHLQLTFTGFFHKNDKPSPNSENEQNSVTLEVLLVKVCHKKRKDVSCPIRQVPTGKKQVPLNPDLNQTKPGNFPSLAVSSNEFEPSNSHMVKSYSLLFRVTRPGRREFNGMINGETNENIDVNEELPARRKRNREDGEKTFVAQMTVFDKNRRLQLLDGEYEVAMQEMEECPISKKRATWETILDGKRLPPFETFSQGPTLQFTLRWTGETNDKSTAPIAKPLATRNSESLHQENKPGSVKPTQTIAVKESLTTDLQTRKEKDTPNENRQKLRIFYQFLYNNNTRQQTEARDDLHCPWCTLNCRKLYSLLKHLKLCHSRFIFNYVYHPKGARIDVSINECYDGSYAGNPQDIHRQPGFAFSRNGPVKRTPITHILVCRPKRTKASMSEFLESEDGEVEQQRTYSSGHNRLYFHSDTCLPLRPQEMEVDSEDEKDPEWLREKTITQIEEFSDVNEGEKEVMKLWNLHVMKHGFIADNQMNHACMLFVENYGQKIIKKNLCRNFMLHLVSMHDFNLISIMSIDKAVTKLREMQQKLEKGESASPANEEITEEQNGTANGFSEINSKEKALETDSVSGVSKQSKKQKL

SMILES: CCN(c1cc(-c2ccc(OCCCCOCC(=O)N[C@H](C(=O)N3C[C@H](O)C[C@H]3C(=O)N[C@@H](C)c3ccc(-c4scnc4C)cc3)C(C)(C)C)cc2)cc(C(=O)NCc2c(C)cc(C)[nH]c2=O)c1C)C1CCOCC1 [Compound 93]
- percent target protein degradation class: A (A = degradation more than 60%)

SMILES: CCN(c1cc(-c2ccc(OCCCCCOCC(=O)N[C@H](C(=O)N3C[C@H](O)C[C@H]3C(=O)N[C@@H](C)c3ccc(-c4scnc4C)cc3)C(C)(C)C)cc2)cc(C(=O)NCc2c(C)cc(C)[nH]c2=O)c1C)C1CCOCC1 [Compound 94, (2S,4R)-1-((S)-2-(2-((5-((3′-(((4,6-dimethyl-2-oxo-1,2-dihydropyridin-3-yl)methyl)carbamoyl)-5′-(ethyl(tetrahydro-2H-pyran-4-yl)amino)-4′-methyl-[1,1′-biphenyl]-4-yl)oxy)pentyl)oxy)acetamido)-3,3-dimethylbutanoyl)-4-hydroxy-N-((S)-1-(4-(4-methylthiazol-5-yl)phenyl)ethyl)pyrrolidine-2-carboxamide]
- percent target protein degradation class: A (A = degradation more than 60%)

SMILES: CCN(c1cc(-c2ccc(OCCCOCC(=O)N[C@H](C(=O)N3C[C@H](O)C[C@H]3C(=O)N[C@@H](C)c3ccc(-c4scnc4C)cc3)C(C)(C)C)cc2)cc(C(=O)NCc2c(C)cc(C)[nH]c2=O)c1C)C1CCOCC1 [Compound 95, (2S,4R)-1-((S)-2-(2-(3-((3′-(((4,6-dimethyl-2-oxo-1,2-dihydropyridin-3-yl)methyl)carbamoyl)-5′-(ethyl(tetrahydro-2H-pyran-4-yl)amino)-4′-methyl-[1,1′-biphenyl]-4-yl)oxy)propoxy)acetamido)-3,3-dimethylbutanoyl)-4-hydroxy-N-((S)-1-(4-(4-methylthiazol-5-yl)phenyl)ethyl)pyrrolidine-2-carboxamide]
- percent target protein degradation class: A (A = degradation more than 60%)

SMILES: CCN(c1cc(-c2ccc(OCCOCCOCC(=O)N[C@H](C(=O)N3C[C@@H](O)C[C@@H]3C(=O)N[C@@H](C)c3ccc(-c4scnc4C)cc3)C(C)(C)C)cc2)cc(C(=O)NCc2c(C)cc(C)[nH]c2=O)c1C)C1CCOCC1 [Compound 96, (2R,4S)-1-((S)-2-(2-(2-(2-((3′-(((4,6-dimethyl-2-oxo-1,2-dihydropyridin-3-yl)methyl)carbamoyl)-5′-(ethyl(tetrahydro-2H-pyran-4-yl)amino)-4′-methyl-[1,1′-biphenyl]-4-yl)oxy)ethoxy)ethoxy)acetamido)-3,3-dimethylbutanoyl)-4-hydroxy-N-((S)-1-(4-(4-methylthiazol-5-yl)phenyl)ethyl)pyrrolidine-2-carboxamide]
- percent target protein degradation class: B (B = degradation between 30% and 60%)

SMILES: CCN(c1cc(-c2ccc(OCCCOc3ccc4c(c3)C(=O)N([C@@H](C(=O)N3C[C@H](O)C[C@H]3C(=O)N[C@@H](C)c3ccc(-c5scnc5C)cc3)C(C)C)C4)cc2)cc(C(=O)NCc2c(C)cc(C)[nH]c2=O)c1C)C1CCOCC1 [Compound 97, (2S,4R)-1-((R)-2-(6-(3-((3′-(((4,6-dimethyl-2-oxo-1,2-dihydropyridin-3-yl)methyl)carbamoyl)-5′-(ethyl(tetrahydro-2H-pyran-4-yl)amino)-4′-methyl-[1,1′-biphenyl]-4-yl)oxy)propoxy)-1-oxoisoindolin-2-yl)-3-methylbutanoyl)-4-hydroxy-N-((S)-1-(4-(4-methylthiazol-5-yl)phenyl)ethyl)pyrrolidine-2-carboxamide]
- percent target protein degradation class: B (B = degradation between 30% and 60%)
